# Assay: In vitro reduction in viability of KB cells by modified crystal violet assay.
# Format: functional, cell-based
# Conditions: Homo sapiens
row,SMILES,IC50 [µg/mL]
1,CS(=O)(=O)OCC1CN(S(C)(=O)=O)c2cc(OCc3ccccc3)ccc21 (configuration not stated),4.39
2,CS(=O)(=O)N1CC2CC23C=CC(=O)C=C13 (configuration not stated),8.64
3,COC(=O)c1cc2c(cc1O)N(S(C)(=O)=O)CC2CCl (configuration not stated),8.38
4,CS(=O)(=O)OCC1CN(S(C)(=O)=O)c2cc(O)c([N+](=O)[O-])cc21 (configuration not stated),0.764
5,CS(=O)(=O)OCC1CN(S(C)(=O)=O)c2cc(O)ccc21 (configuration not stated),3.69
6,CS(=O)(=O)OCC1CN(S(C)(=O)=O)c2cc(O)c(Br)cc21 (configuration not stated),0.308
7,CS(=O)(=O)N1CC(CCl)c2ccc(OCc3ccccc3)cc21 (configuration not stated),6.32
8,CS(=O)(=O)OCC1CN(S(C)(=O)=O)c2cc(OCc3ccccc3)c(Br)cc21 (configuration not stated),5.21
9,COC(=O)c1cc2c(cc1OCc1ccccc1)N(S(C)(=O)=O)CC2CCl (configuration not stated),7.14
10,CS(=O)(=O)N1CC(CCl)c2cc(C=O)c(O)cc21 (configuration not stated),4.83
11,CS(=O)(=O)N1CC(CCl)c2cc(Br)c(O)cc21 (configuration not stated),3.8
12,CS(=O)(=O)OCC1CN(S(C)(=O)=O)c2cc(OCc3ccccc3)c([N+](=O)[O-])cc21 (configuration not stated),7.91
13,CS(=O)(=O)N1CC(CCl)c2cc(C=O)c(OCc3ccccc3)cc21 (configuration not stated),3.24
14,CS(=O)(=O)N1CC(CCl)c2cc(Br)c(OCc3ccccc3)cc21 (configuration not stated),6.18
15,CS(=O)(=O)N1CC(CCl)c2cc([N+](=O)[O-])c(O)cc21 (configuration not stated),8.85
16,CS(=O)(=O)N1CC(CCl)c2ccc(O)cc21 (configuration not stated),4.24
17,COc1cccc2c1C(=O)c1c(O)c3c(c(O)c1C2=O)C[C@@](O)(C(=O)CO)C[C@@H]3O[C@H]1C[C@H](N)[C@H](O)[C@H](C)O1 [DOXORUBICIN],0.02

# Reference: ChEMBL document CHEMBL1126567, “CC-1065 functional analogues possessing different electron-withdrawing substituents and leaving groups: synthesis, kinetics, and sequence specificity of reaction with DNA and biological evaluation” (J Med Chem, 1993)
